Laboratory results: US8148097B2, “Screening method for identification of compounds with calcium-independent phospholipase A2β (iPLA2β) modulating activity” (Washington University, priority 2005, dated 2012)

Columns and labels:
iPLA2β [1] = molecular target: T1, iPLA2β (Cricetulus griseus, UniProt A0A3L7I2I8); assay: ESI-MS analysis of iPLA2β reaction products from POPC/BODIPY-PC vesicles; type: biochemical; details: 5 mol % oleoyl-CoA, FIG. 11H
T1 construct: (His)6; made in house; host or cells: Sf9 insect cells (baculovirus)
T1 sequence (A0A3L7I2I8 1-752 isoform A0A3L7I2I8-2): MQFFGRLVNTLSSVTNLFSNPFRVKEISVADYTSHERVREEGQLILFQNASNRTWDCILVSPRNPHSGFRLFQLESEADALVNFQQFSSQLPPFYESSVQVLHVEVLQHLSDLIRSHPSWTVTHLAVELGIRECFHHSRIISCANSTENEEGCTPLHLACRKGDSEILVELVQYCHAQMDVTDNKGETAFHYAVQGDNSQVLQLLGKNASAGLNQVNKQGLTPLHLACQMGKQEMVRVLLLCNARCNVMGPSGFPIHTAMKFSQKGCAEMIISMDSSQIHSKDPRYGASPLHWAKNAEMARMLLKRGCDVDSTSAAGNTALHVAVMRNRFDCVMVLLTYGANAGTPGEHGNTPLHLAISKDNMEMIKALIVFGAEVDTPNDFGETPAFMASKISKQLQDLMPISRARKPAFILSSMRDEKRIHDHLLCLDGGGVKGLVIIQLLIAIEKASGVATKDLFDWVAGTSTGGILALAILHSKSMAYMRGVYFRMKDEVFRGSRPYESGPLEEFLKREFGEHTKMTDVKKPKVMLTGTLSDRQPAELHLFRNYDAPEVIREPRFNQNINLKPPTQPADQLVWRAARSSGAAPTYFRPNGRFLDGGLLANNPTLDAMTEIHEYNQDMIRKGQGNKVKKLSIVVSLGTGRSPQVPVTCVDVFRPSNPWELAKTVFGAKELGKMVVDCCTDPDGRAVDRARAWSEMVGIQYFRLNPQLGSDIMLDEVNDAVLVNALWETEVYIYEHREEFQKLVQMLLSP
Procedure: FIGS. 11A-11D—Purified iPLA2β+/−Ca^2+/CaM was incubated with POPC/BODIPY-PC (95:5 mol %) host vesicles for 2 min at 37° C. with the indicated concentrations of guest oleoyl-CoA. Relative fluorescence was recorded utilizing 495 nm excitation and 515 nm emission wavelengths as described in Experimental Procedures. FIGS. 11E-11H—ESI-MS analysis of phosphatidylcholine molecular species from the reactions described in panels A and D. Spectra were acquired in the positive ion mode with the indicated internal standards as described in Experimental Procedures. FIG. 11I—Purified iPLA2β in the presence or absence of Ca^2+/CaM was incubated with 1-palmitoyl-2-[1-^14C]-oleoyl-sn-glycero-3-phosphocholine (100 μM) host vesicles with or without guest oleoyl-CoA (10 μM) for 3 min at 37° C. Radiolabeled fatty acid was extracted into butanol, resolved by TLC, and quantified by scintillation spectrometry as described in Experimental Procedures.
To confirm that iPLA2β was in fact hydrolyzing BODIPY-PC and that the increase in fluorescence observed was not due to either protein-fluorophore or acylCoA-fluorophore interactions, the reaction substrates and products were extracted into chloroform/methanol in the presence of internal standards and subsequently quantified and analyzed by ESI-MS (83). […]

iPLA2β [2] = molecular target: T1, iPLA2β; assay: iPLA2β phospholipase A2 activity with radiolabeled POPC substrate; type: biochemical; details: oleoyl-CoA 10 μM, [14C]-POPC substrate, FIG. 11I
Procedure: FIG. 9—Calcium-independent iPLA2β was pre-incubated in the presence of Ca^2+ (1 mM) or Ca^2+-CaM (3 μg) on ice before addition to 95 μM POPC containing either 5 mol % [1-^14C]-POPC or [1-^14C]-palmitoyl-CoA in 100 mM Tris-HCl, pH 7.2. After incubation at 37° C. for 3 min, reactions were terminated by vortexing in the presence of butanol and released radiolabeled fatty acids were resolved by TLC and quantitated by liquid scintillation spectrometry as described in Experimental Procedures.
FIGS. 11A-11D—Purified iPLA2β+/−Ca^2+/CaM was incubated with POPC/BODIPY-PC (95:5 mol %) host vesicles for 2 min at 37° C. with the indicated concentrations of guest oleoyl-CoA. Relative fluorescence was recorded utilizing 495 nm excitation and 515 nm emission wavelengths as described in Experimental Procedures. […] Radiolabeled fatty acid was extracted into butanol, resolved by TLC, and quantified by scintillation spectrometry as described in Experimental Procedures.
Phospholipase A2 and Acyl-CoA Hydrolase Enzymatic Assays—Purified recombinant iPLA2β(His)6 (peptide disclosed as SEQ ID NO: 4) (0.1-1 μg) was incubated with radiolabeled phospholipid or acyl-CoA in 25 mM Tris-HCl, pH 7.2 containing 1 mM EGTA (200 μl final volume) for 1-2 mm at 37° C. […] Incorporation of acyl-CoA into the POPC/DOPS vesicles employed was determined as described previously (64). […]

effect on inhibition of iPLA2β by Ca2+/CaM (iPLA2β [1]): completely reversed the inhibition
inhibition at 10 µM (iPLA2β [2]; no CaM, read-out: inhibition of iPLA2β activity by oleoyl-CoA alone): 20%
activity of CaM-inhibited iPLA2β, % of the activity observed with oleoyl-CoA alone (iPLA2β [2]): approximately 75%
SMILES: CCCCCCCC/C=C\CCCCCCCC(=O)SCCNC(=O)CCNC(=O)[C@H](O)C(C)(C)COP(=O)(O)OP(=O)(O)OC[C@H]1O[C@@H](n2cnc3c(N)ncnc32)[C@H](O)[C@@H]1OP(=O)(O)O [oleoyl-CoA]
